Measurements from patent US12383653B2, “Neutral multidomain peptide hydrogels and uses thereof” (William Marsh Rice University, priority 2018, dated 2025).
Entries after “also recorded” stand apart in the source; their conditions may differ. Where a SMILES comes first, the peptide text is derived from it. [ ]: non-standard residue; d: D form. Hyp = O=C(O)[C@@H]1C[C@@H](O)CN1

Key:
Assay type in all cases: physicochemical
[1] = Solubility of peptides in water
[2] = Secondary structure estimation from circular dichroism in TFE, least square linear method; settings: TFE at 25° C., 1 wt.%
Protocol: Circular Dichroism (CD) spectroscopy. For secondary structure characterization, peptide solutions of 1% by weight (molar concentration is included in Table 2) were prepared in 2,2,2-trifluoroethanol (TFE, Sigma Aldrich, St. Louis, MO). CD spectra acquisition was performed in a CD Jasco J-810 spectropolarimeter (Jasco Inc., Easton, MD) using a 0.01 mm cuvette. Data were collected at room temperature from 180 to 250 nm at a speed of 50 nm/min, with a 0.1 nm data pitch and the spectra were averaged over 5 scans. To study the hydrogelation of O5, 1% by weight peptide solutions were made in 149 mM sucrose solution in 0.5× Hank's Balanced Salt Solution (HBSS, Life Technologies) and analyzed as previously described.
To estimate the secondary structure of O peptide series, data fitting using the least square linear method was performed in MATLAB (Mathworks, Natick, MA). (Hyp)6, O1(SL)6O1 and K2(SL)6K2 were used as basis spectra for polyproline type II, β-sheet and α-helix, respectively (FIG. 7).

[3] = Hydrogel formation (inverted-vial test, pH, ionic strength, buffers); settings: for hydrogel formation at acidic, neutral and basic pH: 1% by weight, pH adjusted with HCl or NaOH, inverted-vial test / CD
Protocol: Hydrogel Formation. Peptide solutions of O5 were prepared at 1% by weight (4.2 mM) in 149 mM sucrose and 0.5×HBSS. This buffer system was chosen to be consistent with prior MDP experiments and find optimum gelling conditions for future in vivo and in vitro work. Peptide solutions were sonicated using a Microson Ultrasonic Cell Disruptor with a 2 mm microprobe. The instrument frequency was 22.5 kHz and a power output up to 10 watts (RMS) was used. Solutions were sonicated at room temperature for 1 or 10 cycles, where each cycle consisted of 10 pulses and 1 min relaxation time between cycles. For the study of hydrogelation of O5, K2 and E2 at different pH values and ionic strength, 1% by weight peptide solutions were prepared in deionized water, PBS, or HBSS. pH was adjusted using HCl or NaOH 0.1 M solutions.

Row | Compound | solubility [1] [µg/mL] | % PPII [2] [%] | % α-helix [2] [%] | % β-sheet [2] [%] | Predominant Structure [2] | state of the peptide at 10 mg/mL ([3]; 10 mg/mL) | hydrogelation in cell culture media ([3]; 1% by weight in 149 mM sucrose and 0.5×HBSS, ultrasonication) | hydrogel formation at acidic, neutral and basic pH [3] | hydrogel formation at acidic, neutral and basic pH ([3]; listed as E2(SL)6E2)
1 | CC(=O)N1C[C@H](O)C[C@H]1C(=O)N[C@@H](CO)C(=O)N[C@@H](CC(C)C)C(=O)N[C@@H](CO)C(=O)N[C@@H](CC(C)C)C(=O)N[C@@H](CO)C(=O)N[C@@H](CC(C)C)C(=O)N[C@@H](CO)C(=O)N[C@@H](CC(C)C)C(=O)N[C@@H](CO)C(=O)N[C@@H](CC(C)C)C(=O)N[C@@H](CO)C(=O)N[C@@H](CC(C)C)C(=O)N1C[C@H](O)C[C@H]1C(N)=O [Peptide O1, Ac-OSLSLSLSLSLSLO-CONH2] (Ac-[Hyp]SLSLSLSLSLSL[Hyp]-NH2) | < 500 | 0 | 0 | 100 | β-sheet |  |  |  | 
2 | Ac-EESLSLSLSLSLSLEE-NH2 [Peptide E2, Ac-EESLSLSLSLSLSLEE-CONH2, reference compound] |  |  |  |  |  |  |  | dependent on pH; also recorded: forms a gel at acidic pH and undergoes phase separation | gels only forming at neutral pH or at elevated ionic strength

Second part, led by results:

Row | solubility [1] [µg/mL] | % PPII [2] [%] | % α-helix [2] [%] | % β-sheet [2] [%] | Predominant Structure [2] | state of the peptide at 10 mg/mL ([3]; 10 mg/mL) | hydrogelation in cell culture media ([3]; 1% by weight in 149 mM sucrose and 0.5×HBSS, ultrasonication) | Compound | hydrogel formation at acidic, neutral and basic pH [3] | hydrogel formation at acidic, neutral and basic pH ([3]; listed as E2(SL)6E2)
3 |  | 48.5 | 40.2 | 11.4 | PPII | viscous solution | dissolves to form a viscous solution | CC(=O)N1C[C@H](O)C[C@H]1C(=O)N1C[C@H](O)C[C@H]1C(=O)N1C[C@H](O)C[C@H]1C(=O)N1C[C@H](O)C[C@H]1C(=O)N1C[C@H](O)C[C@H]1C(=O)N1C[C@H](O)C[C@H]1C(=O)N[C@@H](CO)C(=O)N[C@@H](CC(C)C)C(=O)N[C@@H](CO)C(=O)N[C@@H](CC(C)C)C(=O)N[C@@H](CO)C(=O)N[C@@H](CC(C)C)C(=O)N[C@@H](CO)C(=O)N[C@@H](CC(C)C)C(=O)N[C@@H](CO)C(=O)N[C@@H](CC(C)C)C(=O)N[C@@H](CO)C(=O)N[C@@H](CC(C)C)C(=O)N1C[C@H](O)C[C@H]1C(=O)N1C[C@H](O)C[C@H]1C(=O)N1C[C@H](O)C[C@H]1C(=O)N1C[C@H](O)C[C@H]1C(=O)N1C[C@H](O)C[C@H]1C(=O)N1C[C@H](O)C[C@H]1C(N)=O [Peptide O6, Ac-OOOOOOSLSLSLSLSLSLOOOOOO-CONH2] (Ac-[Hyp][Hyp][Hyp][Hyp][Hyp][Hyp]SLSLSLSLSLSL[Hyp][Hyp][Hyp][Hyp][Hyp][Hyp]-NH2) |  | 
4 | < 500 | 41.8 | 41.2 | 17 | PPII/α-helix |  |  | CC(=O)N1C[C@H](O)C[C@H]1C(=O)N1C[C@H](O)C[C@H]1C(=O)N1C[C@H](O)C[C@H]1C(=O)N1C[C@H](O)C[C@H]1C(=O)N[C@@H](CO)C(=O)N[C@@H](CC(C)C)C(=O)N[C@@H](CO)C(=O)N[C@@H](CC(C)C)C(=O)N[C@@H](CO)C(=O)N[C@@H](CC(C)C)C(=O)N[C@@H](CO)C(=O)N[C@@H](CC(C)C)C(=O)N[C@@H](CO)C(=O)N[C@@H](CC(C)C)C(=O)N[C@@H](CO)C(=O)N[C@@H](CC(C)C)C(=O)N1C[C@H](O)C[C@H]1C(=O)N1C[C@H](O)C[C@H]1C(=O)N1C[C@H](O)C[C@H]1C(=O)N1C[C@H](O)C[C@H]1C(N)=O [Peptide O4, Ac-OOOOSLSLSLSLSLSLOOOO-CONH2] (Ac-[Hyp][Hyp][Hyp][Hyp]SLSLSLSLSLSL[Hyp][Hyp][Hyp][Hyp]-NH2) |  | 
5 | < 500 | 29.3 | 41.9 | 28.8 | α-helix |  |  | CC(=O)N1C[C@H](O)C[C@H]1C(=O)N1C[C@H](O)C[C@H]1C(=O)N[C@@H](CO)C(=O)N[C@@H](CC(C)C)C(=O)N[C@@H](CO)C(=O)N[C@@H](CC(C)C)C(=O)N[C@@H](CO)C(=O)N[C@@H](CC(C)C)C(=O)N[C@@H](CO)C(=O)N[C@@H](CC(C)C)C(=O)N[C@@H](CO)C(=O)N[C@@H](CC(C)C)C(=O)N[C@@H](CO)C(=O)N[C@@H](CC(C)C)C(=O)N1C[C@H](O)C[C@H]1C(=O)N1C[C@H](O)C[C@H]1C(N)=O [Peptide O2, Ac-OOSLSLSLSLSLSLOO-CONH2] (Ac-[Hyp][Hyp]SLSLSLSLSLSL[Hyp][Hyp]-NH2) |  | 
